Results: US5430026A, “2'-deoxy-2',2'-difluoro (4-substituted pyrimidine) nucleosides, bicyclic derivatives,pharmaceutical compositions, and synthetic precursors” (Eli Lilly and Company, priority 1993, dated 1995)
Values after ≈ are worked out from the molar mass of the structure shown.

Columns and labels:
HSV-2 = assay: plaque inhibition of HSV-2 in African green monkey kidney cells (BSC-1), Table 2; format: cell-based, Herpes simplex virus, type II; conditions: 72 hours at 37° C., IC50 less than 20 μg/ml is considered active; for IC50: Human alphaherpesvirus 2, BSC-1 cells, read-out: HSV-2 IC50 (concentration giving 50 percent growth inhibition; plaque inhibition)
[1] = system: human leukemia cells (CCRF-CEM cell line); assay: growth inhibition (cytotoxicity) of human leukemia cells, Table 1; format: cell-based; conditions: IC50 less than 20 μg/ml is considered active; for IC50: Homo sapiens, read-out: IC50 (concentration giving 50 percent growth inhibition)
Excerpt: 38, 2886 (1978). The representative compounds of formula I employed in the present invention are cytotoxic as They inhibit the growth of rapidly dividing human leukemia cells (CCRF-CEM cell line). Table 1 below gives the results of testing several compounds representative of formula I. In Table 1, Column 1 gives the representative compound and Column 2 gives the IC50 (concentration giving 50 percent growth inhibition) in μg/ml.

HSV-1 = assay: plaque inhibition of HSV-1 in African green monkey kidney cells (BSC-1), Table 2; format: cell-based, Herpes simplex virus, type I; conditions: 72 hours at 37° C., IC50 less than 20 μg/ml is considered active; for IC50: Human alphaherpesvirus 1, BSC-1 cells, read-out: HSV-1 IC50 (concentration giving 50 percent growth inhibition; plaque inhibition)

SMILES	IC50 (HSV-2) [mg/L]	IC50 (HSV-1) [mg/L]	HSV-2 IC50 (concentration giving 50 percent growth inhibition; plaque inhibition) (HSV-2; BSC-1 cells) [mg/L]	HSV-1 IC50 (concentration giving 50 percent growth inhibition; plaque inhibition) (HSV-1; BSC-1 cells) [mg/L]	IC50 [1] [mg/L]	IC50 (concentration giving 50 percent growth inhibition) [1] [mg/L]
O=c1[nH]nc2ccn([C@@H]3O[C@H](CO)[C@@H](O)C3(F)F)c(=O)n12 [Example 4, 6-(2-deoxy-2,2-difluoro-β-D-ribofuranosyl)-1,2,4-triazolo[4,3c]pyrimidine-3,5(2H,6H)-dione]	4.9 (≈ 16.1 µM)	6 (≈ 19.7 µM)			0.2 (≈ 0.657 µM)	
NNc1ccn([C@@H]2O[C@H](CO)[C@@H](O)C2(F)F)c(=O)n1 [Example 5, β-1-(2-Oxo-4-hydrazino-1,2-dihydropyrimidin-1-yl)-2-deoxy-2,2-difluororibose]	4.35 (≈ 15.6 µM)	3.12 (≈ 11.2 µM)			0.077 (≈ 0.277 µM)	
CCOC(=O)Nc1ccn([C@@H]2O[C@H](CO)[C@@H](O)C2(F)F)c(=O)n1 [Example 6, β-1-(2-Oxo-4-aminocarboethoxy-1,2-dihydropyrimidin-1-yl)-2-deoxy-2,2-difluororibose]	0.58 (≈ 1.73 µM)	0.53 (≈ 1.58 µM)			0.051 (≈ 0.152 µM)	
CCOC(=O)CNc1ccn([C@@H]2O[C@H](CO)[C@@H](O)C2(F)F)c(=O)n1 [Example 8, β-1-(2-Oxo-4-N-glycineethyl ester-1,2-dihydropyrimidin-1-yl)-2-deoxy-2,2-difluororibose]					18.4 (≈ 52.7 µM)	
O=C(O)CNc1ccn([C@@H]2O[C@H](CO)[C@@H](O)C2(F)F)c(=O)n1 [Example 9, β-1-(2-Oxo-4-N-glycinyl-1,2-dihydropyrimidin-1yl)-2-deoxy-2,2-difluororibose]					0.4 (≈ 1.25 µM)	
CNNc1ccn([C@@H]2O[C@H](CO)[C@@H](O)C2(F)F)c(=O)n1 [Example 10, β-1-[2-Oxo-4-(2-methylhydrazino)-1,2-dihydropyrimidin-1-yl]-2-deoxy-2,2-difluororibose]					4.1 (≈ 14 µM)	
CCOC(=O)C(C)Nc1ccn([C@@H]2O[C@H](CO)[C@@H](O)C2(F)F)c(=O)n1 (stereo partly drawn) [Example 11, β-1-(2-oxo-4-N-alanineethyl ester-1,2-dihydropyrimidin-1-yl)-2-deoxy-2,2-difluororibose]						6.3 (≈ 17.3 µM)

The next lines start with results.

IC50 (HSV-2) [mg/L]	IC50 (HSV-1) [mg/L]	HSV-2 IC50 (concentration giving 50 percent growth inhibition; plaque inhibition) (HSV-2; BSC-1 cells) [mg/L]	HSV-1 IC50 (concentration giving 50 percent growth inhibition; plaque inhibition) (HSV-1; BSC-1 cells) [mg/L]	SMILES	IC50 [1] [mg/L]	IC50 (concentration giving 50 percent growth inhibition) [1] [mg/L]
1.07 (≈ 3.83 µM)	0.7 (≈ 2.51 µM)			O=c1nc(NO)ccn1[C@@H]1O[C@H](CO)[C@@H](O)C1(F)F [Example 1, β-1-(2-Oxo-4-hydroxyamino-1,2-dihydropyrimidin-1-yl)-2-deoxy-2,2-difluororibose]	0.086 (≈ 0.308 µM)	
9.25 (≈ 32 µM)	8 (≈ 27.7 µM)			O=c1n([C@@H]2O[C@H](CO)[C@@H](O)C2(F)F)ccc2nnnn12 [Example 2, 6-(2-deoxy-2,2-difluoro-β-D-ribofuranosyl)-1,2,3,4-tetrazolo[1,5-c]pyrimidine-5(6H) -one]	0.5 (≈ 1.73 µM)	
		11.1	18.0	O=c1nc(NCO)ccn1[C@@H]1O[C@H](CO)[C@@H](O)C1(F)F [Example 7, β-1-(2-Oxo-4-hydroxymethylamino-1,2-dihydropyrimidin-1-yl)-2-deoxy-2,2-difluororibose]		0.3 (≈ 1.02 µM)
